Assay results: ChEMBL document CHEMBL5055685, “Discovery of the First Potent IDO1/IDO2 Dual Inhibitors: A Promising Strategy for Cancer Immunotherapy” (J Med Chem, 2021)
The source made the active and inactive calls. No cut-off for these calls is given here.

Tests used:
[1] = test system: CT26; test: Cytotoxicity against mouse CT26 cells assessed as reduction in cell viability by CCK8 assay; format: functional, cell-based
[2] = Half life in Sprague-Dawley rat at 5 mg/kg, iv; format: ADME, organism-based; conditions: in vivo
[3] = AUC (0 to infinity) in Sprague-Dawley rat at 50 mg/kg, po; format: ADME, organism-based; set-up: time infinity, dose 50 mg/kg, route po; conditions: in vivo
[4] = Oral bioavailability in Sprague-Dawley rat at 50 mg/kg; format: ADME, organism-based; conditions: in vivo
[5] = Half life in human liver microsomes; format: ADME, Microsome
[6] = Half life in monkey liver microsomes; format: ADME, Macaca mulatta, Microsome; conditions: rhesus monkey
[7] = Protein binding in Beagle dog plasma by equilibrium dialysis; format: ADME, cell-free, Canis lupus familiaris; conditions: read-out: PPB (converted)
[8] = test system: HCT-116; test: Antitumor immunity in BALB/c mouse xenografted with human HCT-116 cells assessed as increase in CD80 expression in CD11c+ cells by propidium iodide staining based flow cytometry analysis (reference value: 79.8 %); format: functional
[9] = test system: HCT-116; test: Antitumor immunity in BALB/c mouse xenografted with human HCT-116 cells assessed as live Treg cells in spleen by propidium iodide staining based flow cytometry analysis (reference value: 70.9 %); format: functional
[10] = molecular target: Indoleamine 2,3-dioxygenase 1 (Mus musculus) (UniProt P28776); test: In vivo inhibition of IDO1 in BALB/c mouse xenografted with human HCT-116 cells assessed as suppression of IDO1 mRNA expression in tumor by quantitative RT-PCR analysis; format: functional, organism-based
[11] = test system: Mus musculus; test: In vivo inhibition of IDO1/IDO2 in BALB/c mouse xenografted with human HCT-116 cells assessed as downregulation of Foxp3 mRNA expression in tumor by quantitative RT-PCR analysis; format: functional, organism-based
[12] = molecular target: Activin receptor type-1-like (Homo sapiens) (UniProt P37023); test: Inhibition of ALK1 (unknown origin) at 1 uM
[13] = molecular target: NUAK family SNF1-like kinase 1 (Homo sapiens) (UniProt O60285); test: Inhibition of ARK5 (unknown origin) at 1 uM
[14] = molecular target: Bone morphogenetic protein receptor type-2 (Homo sapiens) (UniProt Q13873); test: Inhibition of BMPR2 (unknown origin) at 1 uM
[15] = molecular target: Tyrosine-protein kinase BTK (Homo sapiens) (UniProt Q06187); test: Inhibition of BTK (unknown origin) at 1 uM
[16] = molecular target: Calcium/calmodulin-dependent protein kinase type II subunit beta (Homo sapiens) (UniProt Q13554); test: Inhibition of CAMK2B (unknown origin) at 1 uM
[17] = molecular target: Casein kinase I isoform epsilon (Homo sapiens) (UniProt P49674); test: Inhibition of CK1E (unknown origin) at 1 uM
[18] = molecular target: Mitogen-activated protein kinase kinase kinase 8 (Homo sapiens) (UniProt P41279); test: Inhibition of COT1 (unknown origin) at 1 uM
[19] = molecular target: Dual specificity tyrosine-phosphorylation-regulated kinase 3 (Homo sapiens) (UniProt O43781); test: Inhibition of DYRK3 (unknown origin) at 1 uM
[20] = molecular target: Ephrin type-A receptor 1 (Homo sapiens) (UniProt P21709); test: Inhibition of EPHA1 (unknown origin) at 1 uM
[21] = molecular target: Mitogen-activated protein kinase 1 (Homo sapiens) (UniProt P28482); test: Inhibition of ERK2 (unknown origin) at 1 uM
[22] = molecular target: Mitogen-activated protein kinase 15 (Homo sapiens) (UniProt Q8TD08); test: Inhibition of ERK7 (unknown origin) at 1 uM
[23] = molecular target: Tyrosine-protein kinase Fer (Homo sapiens) (UniProt P16591); test: Inhibition of FER (unknown origin) at 1 uM
[24] = molecular target: Fibroblast growth factor receptor 2 (Homo sapiens) (UniProt P21802); test: Inhibition of FGFR2 (unknown origin) at 1 uM
[25] = molecular target: Vascular endothelial growth factor receptor 3 (Homo sapiens) (UniProt P35916); test: Inhibition of FLT4 (unknown origin) at 1 uM
[26] = molecular target: Rhodopsin kinase GRK7 (Homo sapiens) (UniProt Q8WTQ7); test: Inhibition of GRK7 (unknown origin) at 1 uM
[27] = molecular target: Homeodomain-interacting protein kinase 4 (Homo sapiens) (UniProt Q8NE63); test: Inhibition of HIPK4 (unknown origin) at 1 uM
[28] = molecular target: Tyrosine-protein kinase JAK1 (Homo sapiens) (UniProt P23458); test: Inhibition of JAK1 (unknown origin) at 1 uM
[29] = molecular target: Tyrosine-protein kinase Lyn (Homo sapiens) (UniProt P07948); test: Inhibition of LYN-B (unknown origin) at 1 uM
[30] = molecular target: MAP/microtubule affinity-regulating kinase 3 (Homo sapiens) (UniProt P27448); test: Inhibition of MARK3 (unknown origin) at 1 uM
[31] = molecular target: Mitogen-activated protein kinase kinase kinase 3 (Homo sapiens) (UniProt Q99759); test: Inhibition of MEKK3 (unknown origin) at 1 uM
[32] = molecular target: Dual specificity mitogen-activated protein kinase kinase 4 (Homo sapiens) (UniProt P45985); test: Inhibition of MKK4 (unknown origin) at 1 uM
[33] = molecular target: MAP kinase-interacting serine/threonine-protein kinase 2 (Homo sapiens) (UniProt Q9HBH9); test: Inhibition of MNK2 (unknown origin) at 1 uM
[34] = molecular target: Serine/threonine-protein kinase Nek11 (Homo sapiens) (UniProt Q8NG66); test: Inhibition of NEK11 (unknown origin) at 1 uM
[35] = molecular target: Serine/threonine-protein kinase PAK 4 (Homo sapiens) (UniProt O96013); test: Inhibition of PAK4 (unknown origin) at 1 uM
[36] = molecular target: Protein kinase C beta type (Homo sapiens) (UniProt P05771); test: Inhibition of PKCb2 (unknown origin) at 1 uM
[37] = molecular target: RAF proto-oncogene serine/threonine-protein kinase (Homo sapiens) (UniProt P04049); test: Inhibition of RAF1 (unknown origin) at 1 uM
[38] = molecular target: Receptor-interacting serine/threonine-protein kinase 3 (Homo sapiens) (UniProt Q9Y572); test: Inhibition of RIPK3 (unknown origin) at 1 uM
[39] = molecular target: Dual serine/threonine and tyrosine protein kinase (Homo sapiens) (UniProt Q6XUX3); test: Inhibition of RIPK5 (unknown origin) at 1 uM
[40] = molecular target: Rho-associated protein kinase 2 (Homo sapiens) (UniProt O75116); test: Inhibition of ROCK2 (unknown origin) at 1 uM
[41] = molecular target: STE20-like serine/threonine-protein kinase (Homo sapiens) (UniProt Q9H2G2); test: Inhibition of SLK (unknown origin) at 1 uM
[42] = molecular target: Serine/threonine-protein kinase tousled-like 1 (Homo sapiens) (UniProt Q9UKI8); test: Inhibition of TLK1 (unknown origin) at 1 uM
[43] = molecular target: Non-receptor tyrosine-protein kinase TYK2 (Homo sapiens) (UniProt P29597); test: Inhibition of TYK2 (unknown origin) at 1 uM
[44] = molecular target: Serine/threonine-protein kinase VRK1 (Homo sapiens) (UniProt Q99986); test: Inhibition of VRK1 (unknown origin) at 1 uM
[45] = molecular target: Mitogen-activated protein kinase kinase kinase 20 (Homo sapiens) (UniProt Q9NYL2); test: Inhibition of ZAK (unknown origin) at 1 uM

Serine/threonine-protein kinase PAK 4 (Homo sapiens), sequence (O96013 whole entry, looked up): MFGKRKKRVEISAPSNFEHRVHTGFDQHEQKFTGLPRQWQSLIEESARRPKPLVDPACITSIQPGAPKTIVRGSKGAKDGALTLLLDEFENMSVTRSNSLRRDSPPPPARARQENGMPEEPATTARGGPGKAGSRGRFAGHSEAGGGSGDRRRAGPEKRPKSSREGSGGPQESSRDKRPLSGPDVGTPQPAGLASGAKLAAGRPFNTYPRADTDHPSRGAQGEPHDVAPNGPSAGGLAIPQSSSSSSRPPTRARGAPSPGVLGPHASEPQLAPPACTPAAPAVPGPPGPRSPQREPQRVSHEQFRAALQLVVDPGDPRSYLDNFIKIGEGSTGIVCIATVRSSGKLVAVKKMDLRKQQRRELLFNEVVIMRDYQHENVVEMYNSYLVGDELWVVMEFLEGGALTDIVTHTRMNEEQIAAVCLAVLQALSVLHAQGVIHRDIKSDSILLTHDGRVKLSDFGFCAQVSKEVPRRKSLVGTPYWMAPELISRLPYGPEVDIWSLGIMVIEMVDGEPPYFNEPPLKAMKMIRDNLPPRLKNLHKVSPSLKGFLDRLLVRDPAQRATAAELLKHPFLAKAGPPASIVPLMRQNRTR
Bone morphogenetic protein receptor type-2 (Homo sapiens), sequence (Q13873 whole entry): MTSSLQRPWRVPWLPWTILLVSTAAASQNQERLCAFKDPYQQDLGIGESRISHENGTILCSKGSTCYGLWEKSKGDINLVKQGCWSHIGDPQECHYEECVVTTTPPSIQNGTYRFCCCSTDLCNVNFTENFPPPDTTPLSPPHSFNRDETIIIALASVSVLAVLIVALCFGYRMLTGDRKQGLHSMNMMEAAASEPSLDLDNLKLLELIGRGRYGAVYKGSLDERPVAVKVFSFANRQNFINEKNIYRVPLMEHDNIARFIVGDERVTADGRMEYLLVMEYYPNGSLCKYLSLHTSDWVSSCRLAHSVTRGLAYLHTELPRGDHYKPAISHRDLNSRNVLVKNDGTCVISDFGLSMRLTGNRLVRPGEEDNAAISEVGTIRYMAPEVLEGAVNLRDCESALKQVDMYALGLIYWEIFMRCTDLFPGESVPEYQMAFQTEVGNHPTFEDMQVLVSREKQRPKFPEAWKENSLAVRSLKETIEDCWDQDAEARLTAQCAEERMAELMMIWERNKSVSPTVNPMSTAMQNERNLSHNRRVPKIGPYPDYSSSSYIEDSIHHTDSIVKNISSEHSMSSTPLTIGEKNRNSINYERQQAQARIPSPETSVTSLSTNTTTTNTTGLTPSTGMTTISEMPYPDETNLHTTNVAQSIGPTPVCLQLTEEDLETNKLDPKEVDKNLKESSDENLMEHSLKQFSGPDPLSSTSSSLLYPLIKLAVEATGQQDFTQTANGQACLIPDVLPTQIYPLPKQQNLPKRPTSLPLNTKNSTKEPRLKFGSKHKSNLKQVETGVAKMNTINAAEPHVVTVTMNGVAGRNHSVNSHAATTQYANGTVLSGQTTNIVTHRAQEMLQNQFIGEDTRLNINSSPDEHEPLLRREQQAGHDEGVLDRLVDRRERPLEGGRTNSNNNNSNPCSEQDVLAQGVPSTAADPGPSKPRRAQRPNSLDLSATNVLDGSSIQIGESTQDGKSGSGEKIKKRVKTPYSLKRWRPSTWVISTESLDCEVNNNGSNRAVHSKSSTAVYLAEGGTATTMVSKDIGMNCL
MAP/microtubule affinity-regulating kinase 3 (Homo sapiens), sequence (P27448 whole entry, looked up): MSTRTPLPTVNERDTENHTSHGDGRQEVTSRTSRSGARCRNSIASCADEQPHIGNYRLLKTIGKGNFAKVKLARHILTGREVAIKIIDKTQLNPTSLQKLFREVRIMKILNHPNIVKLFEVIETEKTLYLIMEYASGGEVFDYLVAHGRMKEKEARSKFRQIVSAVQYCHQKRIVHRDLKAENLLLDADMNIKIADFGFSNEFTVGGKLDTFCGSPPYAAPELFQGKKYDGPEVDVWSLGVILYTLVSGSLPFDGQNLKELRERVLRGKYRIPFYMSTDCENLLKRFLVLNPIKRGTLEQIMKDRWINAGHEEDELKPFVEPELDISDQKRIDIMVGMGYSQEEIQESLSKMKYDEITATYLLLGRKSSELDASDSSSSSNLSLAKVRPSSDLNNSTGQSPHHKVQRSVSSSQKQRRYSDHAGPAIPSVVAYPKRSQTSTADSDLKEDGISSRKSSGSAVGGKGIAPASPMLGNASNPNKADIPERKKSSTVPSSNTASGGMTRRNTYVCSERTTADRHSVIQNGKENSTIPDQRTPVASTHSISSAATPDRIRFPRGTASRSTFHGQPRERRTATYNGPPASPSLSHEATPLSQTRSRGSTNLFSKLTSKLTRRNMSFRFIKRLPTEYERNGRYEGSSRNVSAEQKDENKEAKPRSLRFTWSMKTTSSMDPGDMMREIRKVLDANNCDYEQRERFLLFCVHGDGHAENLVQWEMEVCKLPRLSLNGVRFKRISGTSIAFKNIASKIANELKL
Rho-associated protein kinase 2 (Homo sapiens), sequence (O75116 whole entry, looked up): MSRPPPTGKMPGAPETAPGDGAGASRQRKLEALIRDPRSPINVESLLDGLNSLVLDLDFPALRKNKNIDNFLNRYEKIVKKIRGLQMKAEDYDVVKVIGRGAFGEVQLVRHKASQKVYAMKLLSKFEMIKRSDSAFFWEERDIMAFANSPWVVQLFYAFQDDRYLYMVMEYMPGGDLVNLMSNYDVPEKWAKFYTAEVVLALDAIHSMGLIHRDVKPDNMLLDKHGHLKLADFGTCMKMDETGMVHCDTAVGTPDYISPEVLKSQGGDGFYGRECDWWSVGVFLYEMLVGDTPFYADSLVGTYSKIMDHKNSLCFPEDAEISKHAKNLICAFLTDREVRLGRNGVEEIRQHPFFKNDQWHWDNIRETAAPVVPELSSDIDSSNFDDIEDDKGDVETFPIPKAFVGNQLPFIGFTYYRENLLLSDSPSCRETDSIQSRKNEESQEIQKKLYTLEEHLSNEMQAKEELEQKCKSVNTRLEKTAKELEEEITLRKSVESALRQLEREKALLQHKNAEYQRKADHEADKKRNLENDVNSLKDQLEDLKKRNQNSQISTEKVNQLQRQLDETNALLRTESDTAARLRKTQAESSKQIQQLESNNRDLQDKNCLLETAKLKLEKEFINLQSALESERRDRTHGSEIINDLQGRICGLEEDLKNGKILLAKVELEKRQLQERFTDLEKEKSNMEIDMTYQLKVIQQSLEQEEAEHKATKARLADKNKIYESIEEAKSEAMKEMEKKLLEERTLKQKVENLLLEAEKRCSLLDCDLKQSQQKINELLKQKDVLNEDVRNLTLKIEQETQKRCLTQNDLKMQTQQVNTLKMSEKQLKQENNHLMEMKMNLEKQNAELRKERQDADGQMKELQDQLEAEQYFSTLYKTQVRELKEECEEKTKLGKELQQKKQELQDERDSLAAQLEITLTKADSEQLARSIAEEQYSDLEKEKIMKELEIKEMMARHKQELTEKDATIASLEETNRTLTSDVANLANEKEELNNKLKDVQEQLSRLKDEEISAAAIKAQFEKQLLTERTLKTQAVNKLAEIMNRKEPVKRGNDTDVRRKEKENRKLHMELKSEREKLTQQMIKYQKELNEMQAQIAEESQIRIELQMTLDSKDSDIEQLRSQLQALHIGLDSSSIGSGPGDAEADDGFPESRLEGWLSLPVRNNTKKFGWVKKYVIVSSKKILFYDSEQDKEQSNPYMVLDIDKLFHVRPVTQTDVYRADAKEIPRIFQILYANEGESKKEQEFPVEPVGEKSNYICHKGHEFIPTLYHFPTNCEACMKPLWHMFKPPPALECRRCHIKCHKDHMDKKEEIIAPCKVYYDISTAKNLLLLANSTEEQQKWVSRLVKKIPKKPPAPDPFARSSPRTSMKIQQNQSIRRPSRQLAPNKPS
Mitogen-activated protein kinase 15 (Homo sapiens), sequence (Q8TD08 whole entry): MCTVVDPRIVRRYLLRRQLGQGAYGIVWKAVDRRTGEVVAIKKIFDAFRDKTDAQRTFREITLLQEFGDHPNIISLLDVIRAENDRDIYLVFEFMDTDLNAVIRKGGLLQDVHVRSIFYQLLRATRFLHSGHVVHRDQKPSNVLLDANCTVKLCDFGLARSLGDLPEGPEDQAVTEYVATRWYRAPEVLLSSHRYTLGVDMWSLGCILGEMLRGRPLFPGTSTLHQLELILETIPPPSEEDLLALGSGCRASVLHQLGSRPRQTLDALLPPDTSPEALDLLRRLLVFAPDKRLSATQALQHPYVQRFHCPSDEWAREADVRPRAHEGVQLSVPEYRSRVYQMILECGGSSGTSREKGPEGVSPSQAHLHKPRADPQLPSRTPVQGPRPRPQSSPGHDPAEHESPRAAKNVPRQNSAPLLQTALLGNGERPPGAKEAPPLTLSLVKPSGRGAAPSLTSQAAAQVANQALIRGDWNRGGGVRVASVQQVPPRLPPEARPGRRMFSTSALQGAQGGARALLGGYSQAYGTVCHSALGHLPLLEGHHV
Serine/threonine-protein kinase Nek11 (Homo sapiens), sequence (Q8NG66 whole entry): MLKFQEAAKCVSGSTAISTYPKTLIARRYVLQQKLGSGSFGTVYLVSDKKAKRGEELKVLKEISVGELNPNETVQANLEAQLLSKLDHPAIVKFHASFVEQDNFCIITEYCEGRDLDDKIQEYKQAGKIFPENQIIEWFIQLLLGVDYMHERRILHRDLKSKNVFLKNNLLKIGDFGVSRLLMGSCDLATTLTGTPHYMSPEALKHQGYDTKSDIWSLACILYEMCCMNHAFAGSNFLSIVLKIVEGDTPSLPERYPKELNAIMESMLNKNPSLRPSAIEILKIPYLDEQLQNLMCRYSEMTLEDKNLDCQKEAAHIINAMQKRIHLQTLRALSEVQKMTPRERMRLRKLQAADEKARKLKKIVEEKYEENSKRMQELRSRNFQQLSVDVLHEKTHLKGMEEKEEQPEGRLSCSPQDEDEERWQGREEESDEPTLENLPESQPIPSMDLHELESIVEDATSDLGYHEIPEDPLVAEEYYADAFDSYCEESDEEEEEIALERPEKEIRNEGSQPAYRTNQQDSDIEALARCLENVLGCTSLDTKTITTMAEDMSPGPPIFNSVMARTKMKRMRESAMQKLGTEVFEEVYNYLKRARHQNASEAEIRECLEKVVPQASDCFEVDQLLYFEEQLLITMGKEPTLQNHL

## OCCOCc1cn(CCNc2nonc2/C(=N/O)Nc2ccc(F)c(Br)c2)nn1
[1]
  IC50: 62 µM
[2]
  half-life: 36.6 min
[3]
  AUC(0-inf): 3950 ng·h/mL
[4]
  bioavailability: 12%
[5]
  half-life: 46.1 min
[6]
  half-life: 38.6 min
[7]
  fraction unbound: 0.0498
[8]
  Activity: 75.8%
[9]
  Activity: 87.4%
[10]
  inhibition: Active
[11]
  inhibition: Active
[12]
  inhibition: inactive
[13]
  inhibition: inactive
[14]
  inhibition: inactive
[15]
  inhibition: inactive
[16]
  inhibition: inactive
[17]
  inhibition: inactive
[18]
  inhibition: inactive
[19]
  inhibition: inactive
[20]
  inhibition: inactive
[21]
  inhibition: inactive
[22]
  inhibition: inactive
[23]
  inhibition: inactive
[24]
  inhibition: inactive
[25]
  inhibition: inactive
[26]
  inhibition: inactive
[27]
  inhibition: inactive
[28]
  inhibition: inactive
[29]
  inhibition: inactive
[30]
  inhibition: inactive
[31]
  inhibition: inactive
[32]
  inhibition: inactive
[33]
  inhibition: inactive
[34]
  inhibition: inactive
[35]
  inhibition: inactive
[36]
  inhibition: inactive
[37]
  inhibition: inactive
[38]
  inhibition: inactive
[39]
  inhibition: inactive
[40]
  inhibition: inactive
[41]
  inhibition: inactive
[42]
  inhibition: inactive
[43]
  inhibition: inactive
[44]
  inhibition: inactive
[45]
  inhibition: inactive
